Source: publication PMC6572064, “Discovery of 2-(1-(3-(4-Chloroxyphenyl)-3-oxo- propyl)pyrrolidine-3-yl)-1H-benzo[d]imidazole-4-carboxamide: A Potent Poly(ADP-ribose) Polymerase (PARP) Inhibitor for Treatment of Cancer” (Molecules, 2019)
Read-outs that look alike come from different tables or passages of the source.

Assays:
[1] = system: CAPAN-1 (a BRCA-2-mutated pancreatic cancer cell line); assay: Cell proliferation assay, three-day, CellTiter-Glo, CAPAN-1; assay type: cell-based; settings: for LogIC50: CAPAN-1, curve-fit output, Log (uM); for IC50 / inhibition at 0.00508 µM / inhibition at 0.0152 µM / inhibition at 0.0457 µM / inhibition at 0.41 µM / inhibition at 1.23 µM / inhibition at 3.7 µM / inhibition at 11.11 µM / inhibition at 33.33 µM / inhibition at 100 µM / inhibition at […]: Homo sapiens; for inhibition at […]: CAPAN-1, 0.14 uM
In short: (§1)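 Cells seeded overnight in 384-well plates, then exposed to compounds (DMSO stock diluted in medium) for 72 h at 37 °C, 5% CO2. Viability read as CellTiter-Glo luminescence after 60 min at room temperature.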

PARP-2 = molecular target: T1, PARP-2 (Homo sapiens, UniProt Q9UGN5); assay: PARP-2 inhibition assay (PARP-2 Chemiluminescent Assay Kit, BPS Bioscience); assay type: biochemical
T1 construct: purchased BPS Bioscience 80552
Procedure: (§2) The PARP-1 and PARP-2 inhibition assays were performed in outsourcing, by a CRO company, Shanghai Medicilon Inc. (Shanghai, China). […] Briefly, PARP-1 or PARP-2 biotinylated substrate was incubated with compounds or solvent control at varying concentrations and an assay buffer containing the PARP-1 or PARP-2 enzyme.

PARP-1 = molecular target: T2, PARP-1 (Homo sapiens, UniProt P09874); assay: PARP-1 inhibition assay (PARP-1 Chemiluminescent Assay Kit, BPS Bioscience); assay type: biochemical
T2 construct: purchased BPS Bioscience 80569
Procedure: as §2

[2] = system: MDA-MB-436 (a BRCA-1-mutated breast cancer cell line); assay: Cell proliferation assay, three-day, CellTiter-Glo, MDA-MB-436; assay type: cell-based; settings: for IC50 / inhibition at 0.00508 µM / inhibition at 0.0152 µM / inhibition at 0.0457 µM / inhibition at 0.41 µM / inhibition at 1.23 µM / inhibition at 3.7 µM / inhibition at 11.11 µM / inhibition at 33.33 µM / inhibition at 100 µM: Homo sapiens
In short: as §1

T2 sequence (P09874 whole entry): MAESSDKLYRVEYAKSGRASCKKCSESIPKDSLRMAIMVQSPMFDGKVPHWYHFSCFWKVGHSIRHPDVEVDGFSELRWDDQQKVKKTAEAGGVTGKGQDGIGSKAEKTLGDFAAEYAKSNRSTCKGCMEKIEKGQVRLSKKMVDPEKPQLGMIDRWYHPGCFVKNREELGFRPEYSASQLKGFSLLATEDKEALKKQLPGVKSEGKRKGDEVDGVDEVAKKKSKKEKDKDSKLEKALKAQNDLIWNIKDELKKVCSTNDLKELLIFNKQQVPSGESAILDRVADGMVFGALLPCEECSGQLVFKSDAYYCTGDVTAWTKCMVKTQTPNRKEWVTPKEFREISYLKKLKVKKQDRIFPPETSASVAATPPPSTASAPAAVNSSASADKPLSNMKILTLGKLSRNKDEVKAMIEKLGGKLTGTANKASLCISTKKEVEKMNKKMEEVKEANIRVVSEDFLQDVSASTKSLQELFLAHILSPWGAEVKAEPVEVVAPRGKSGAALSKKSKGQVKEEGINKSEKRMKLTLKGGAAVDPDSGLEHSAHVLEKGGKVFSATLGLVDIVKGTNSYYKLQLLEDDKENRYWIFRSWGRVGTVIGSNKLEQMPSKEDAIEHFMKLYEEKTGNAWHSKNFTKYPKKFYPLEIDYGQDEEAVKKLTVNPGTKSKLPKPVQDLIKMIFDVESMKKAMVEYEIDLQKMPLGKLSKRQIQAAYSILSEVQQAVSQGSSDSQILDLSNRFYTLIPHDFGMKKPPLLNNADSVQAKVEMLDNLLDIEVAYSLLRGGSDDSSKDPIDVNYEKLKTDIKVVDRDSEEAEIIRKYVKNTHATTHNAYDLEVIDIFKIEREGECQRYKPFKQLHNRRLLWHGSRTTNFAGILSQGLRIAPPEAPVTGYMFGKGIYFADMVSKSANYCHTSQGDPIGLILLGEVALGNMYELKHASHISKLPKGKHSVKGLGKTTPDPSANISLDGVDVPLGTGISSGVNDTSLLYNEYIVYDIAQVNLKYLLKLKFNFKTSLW
T1 sequence (Q9UGN5 whole entry): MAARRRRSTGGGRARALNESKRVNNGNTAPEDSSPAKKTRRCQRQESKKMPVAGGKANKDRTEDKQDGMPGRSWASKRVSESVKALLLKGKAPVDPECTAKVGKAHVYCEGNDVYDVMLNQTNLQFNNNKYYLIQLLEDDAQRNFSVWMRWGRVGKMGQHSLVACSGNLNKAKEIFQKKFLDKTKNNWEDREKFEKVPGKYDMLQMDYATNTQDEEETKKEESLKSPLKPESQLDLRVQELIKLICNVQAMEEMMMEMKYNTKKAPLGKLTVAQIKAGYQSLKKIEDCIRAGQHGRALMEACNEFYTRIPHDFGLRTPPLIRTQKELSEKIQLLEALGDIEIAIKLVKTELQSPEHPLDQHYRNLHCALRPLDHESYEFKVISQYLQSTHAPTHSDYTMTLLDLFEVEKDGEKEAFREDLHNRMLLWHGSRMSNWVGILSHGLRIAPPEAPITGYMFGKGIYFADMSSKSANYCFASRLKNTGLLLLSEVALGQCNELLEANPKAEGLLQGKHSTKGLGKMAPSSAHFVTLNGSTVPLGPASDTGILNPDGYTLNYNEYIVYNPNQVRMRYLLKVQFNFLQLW

NC(=O)c1cccc2[nH]c(C3CCN(CCC(O)c4ccccc4)C3)nc12 (stereo not drawn) [Compound 5cg, 2-(1-(3-Hydroxy-3-phenylpropyl)pyrrolidin-3-yl)-1H-benzo[d]imi-dazole-4-carboxamide]
LogIC50 [1]: 2.199 | IC50 ([1]; CAPAN-1, 72 h, read-out: CAPAN-1 IC50 (μM)): > 100 µM | inhibition at 0.00508 µM ([1]; CAPAN-1, read-out: Inh % 1): 4.5% | inhibition at 0.0152 µM ([1]; CAPAN-1, read-out: Inh % 1): 16.3% | inhibition at 0.0457 µM ([1]; CAPAN-1, read-out: Inh % 1): 5.6% | inhibition at 0.41 µM ([1]; CAPAN-1, read-out: Inh % 1): 14.3% | inhibition at 1.23 µM ([1]; CAPAN-1, read-out: Inh % 1): 11.4% | inhibition at 3.7 µM ([1]; CAPAN-1, read-out: Inh % 1): 16.5% | inhibition at 11.11 µM ([1]; CAPAN-1, read-out: Inh % 1): 22% | inhibition at 33.33 µM ([1]; CAPAN-1, read-out: Inh % 1): 33.5% | inhibition at 100 µM ([1]; CAPAN-1, read-out: Inh % 1): 47.6% | inhibition at 0.00508 µM ([1]; CAPAN-1, read-out: Inh % 2): -5.2% | inhibition at 0.0152 µM ([1]; CAPAN-1, read-out: Inh % 2): -0.0618% | inhibition at 0.0457 µM ([1]; CAPAN-1, read-out: Inh % 2): 0.1% | inhibition at 0.41 µM ([1]; CAPAN-1, read-out: Inh % 2): 8.8% | inhibition at 1.23 µM ([1]; CAPAN-1, read-out: Inh % 2): 2.5% | inhibition at 3.7 µM ([1]; CAPAN-1, read-out: Inh % 2): 5.4% | inhibition at 11.11 µM ([1]; CAPAN-1, read-out: Inh % 2): -1.6% | inhibition at 33.33 µM ([1]; CAPAN-1, read-out: Inh % 2): 14% | inhibition at 100 µM ([1]; CAPAN-1, read-out: Inh % 2): 38.6% | inhibition at 0.01 µM (PARP-2; read-out: 10 nM inhibition% PAPR-2): 6.45% | inhibition at 0.01 µM (PARP-2; read-out: PARP-2 Inhibition % (10 nM)): 6.5% | inhibition at 0.01 µM (PARP-1; read-out: 10 nM inhibition% PAPR-1): -2.11% | inhibition at 0.01 µM (PARP-1; read-out: PARP-1 Inhibition % (10 nM)): -2.1% | IC50 ([2]; MDA-MB-436): 74.1 µM | IC50 ([2]; MDA-MB-436, 72 h): 74.1 µM | IC50 ([2]; MDA-MB-436, 72 h, read-out: MDA-MB-436 IC50 (μM)): 74.1 µM | inhibition at 0.00508 µM ([2]; MDA-MB-436, read-out: Inh % 1): 2.1% | inhibition at 0.0152 µM ([2]; MDA-MB-436, read-out: Inh % 1): -3.5% | inhibition at 0.0457 µM ([2]; MDA-MB-436, read-out: Inh % 1): -5.7% | inhibition at 0.41 µM ([2]; MDA-MB-436, read-out: Inh % 1): -16.8% | inhibition at 1.23 µM ([2]; MDA-MB-436, read-out: Inh % 1): -6% | inhibition at 3.7 µM ([2]; MDA-MB-436, read-out: Inh % 1): -10.1% | inhibition at 11.11 µM ([2]; MDA-MB-436, read-out: Inh % 1): 0.536% | inhibition at 33.33 µM ([2]; MDA-MB-436, read-out: Inh % 1): 21.6% | inhibition at 100 µM ([2]; MDA-MB-436, read-out: Inh % 1): 68% | inhibition at 0.00508 µM ([2]; MDA-MB-436, read-out: Inh % 2): -5% | inhibition at 0.0152 µM ([2]; MDA-MB-436, read-out: Inh % 2): -7% | inhibition at 0.0457 µM ([2]; MDA-MB-436, read-out: Inh % 2): -13.4% | inhibition at 0.41 µM ([2]; MDA-MB-436, read-out: Inh % 2): -9.8% | inhibition at 1.23 µM ([2]; MDA-MB-436, read-out: Inh % 2): -9.1% | inhibition at 3.7 µM ([2]; MDA-MB-436, read-out: Inh % 2): -17.7% | inhibition at 11.11 µM ([2]; MDA-MB-436, read-out: Inh % 2): -6.9% | inhibition at 33.33 µM ([2]; MDA-MB-436, read-out: Inh % 2): 10.8% | inhibition at 100 µM ([2]; MDA-MB-436, read-out: Inh % 2): 46.7% | LogIC50 ([2]; MDA-MB-436, curve fit on Log (uM) concentrations): 1.87 | Top ([2]; MDA-MB-436, curve fit parameter (Inh %), '= 100.0' is a constrained value): = 100.0

NC(=O)c1cccc2[nH]c(C3CCN(CCCNc4ccccc4)C3)nc12 (stereo not drawn) [Compound 5ch, 2-(1-(3-(Phenylamino)propyl)pyrrolidin-3-yl)-1H-benzo[d]imidazole-4-carboxamide]
LogIC50 [1]: 2.153 | IC50 ([1]; CAPAN-1, 72 h, CellTiter-Glo, read-out: CAPAN-1 IC50): > 100 µM | inhibition at 0.00508 µM ([1]; CAPAN-1, 0.00508 uM, replicate 1, read-out: Inh % 1): 2.8% | inhibition at 0.00508 µM ([1]; CAPAN-1, 0.00508 uM, replicate 2, read-out: Inh % 2): -6.9% | inhibition at 0.0152 µM ([1]; CAPAN-1, 0.0152 uM, replicate 1, read-out: Inh % 1): 3.5% | inhibition at 0.0152 µM ([1]; CAPAN-1, 0.0152 uM, replicate 2, read-out: Inh % 2): 0.5% | inhibition at 0.0457 µM ([1]; CAPAN-1, 0.0457 uM, replicate 1, read-out: Inh % 1): 5% | inhibition at 0.0457 µM ([1]; CAPAN-1, 0.0457 uM, replicate 2, read-out: Inh % 2): 0.2% | inhibition at […] ([1]; replicate 1, read-out: Inh % 1): -1.8% | inhibition at […] ([1]; replicate 2, read-out: Inh % 2): -3% | inhibition at 0.41 µM ([1]; CAPAN-1, 0.41 uM, replicate 1, read-out: Inh % 1): 6.4% | inhibition at 0.41 µM ([1]; CAPAN-1, 0.41 uM, replicate 2, read-out: Inh % 2): 6.3% | inhibition at 1.23 µM ([1]; CAPAN-1, 1.23 uM, replicate 1, read-out: Inh % 1): -2.4% | inhibition at 1.23 µM ([1]; CAPAN-1, 1.23 uM, replicate 2, read-out: Inh % 2): -3.6% | inhibition at 3.7 µM ([1]; CAPAN-1, 3.70 uM, replicate 1, read-out: Inh % 1): 7.7% | inhibition at 3.7 µM ([1]; CAPAN-1, 3.70 uM, replicate 2, read-out: Inh % 2): 10.2% | inhibition at 11.11 µM ([1]; CAPAN-1, 11.11 uM, replicate 1, read-out: Inh % 1): 2.2% | inhibition at 11.11 µM ([1]; CAPAN-1, 11.11 uM, replicate 2, read-out: Inh % 2): 3% | inhibition at 33.33 µM ([1]; CAPAN-1, 33.33 uM, replicate 1, read-out: Inh % 1): 29.9% | inhibition at 33.33 µM ([1]; CAPAN-1, 33.33 uM, replicate 2, read-out: Inh % 2): 20.6% | inhibition at 100 µM ([1]; CAPAN-1, 100.00 uM, replicate 1, read-out: Inh % 1): 46.6% | inhibition at 100 µM ([1]; CAPAN-1, 100.00 uM, replicate 2, read-out: Inh % 2): 35.5% | inhibition at 0.01 µM (PARP-2; 10 nM compound, supplement sheet, read-out: 10 nM inhibition% PAPR-2): 66.2% | inhibition at 0.01 µM (PARP-2; 10 nM compound, read-out: PARP-2 Inhibition % (10 nM)): 66.2% | IC50 (PARP-2; read-out: PARP-2 IC50): 0.0033 µM | IC50 (PARP-2; supplement sheet, read-out: IC50 PAPR-2): 0.00333 µM | inhibition at 0.01 µM (PARP-1; 10 nM compound, supplement sheet, read-out: 10 nM inhibition% PAPR-1): 47.5% | inhibition at 0.01 µM (PARP-1; 10 nM compound, read-out: PARP-1 Inhibition % (10 nM)): 47.5% | IC50 (PARP-1; read-out: PARP-1 IC50): 0.0071 µM | IC50 (PARP-1; supplement sheet, read-out: IC50 PAPR-1): 0.00714 µM | inhibition at 0.00508 µM ([2]; MDA-MB-436, MDA-MB-436, Conc. 0.00508 uM, replicate 1, read-out: Inh % 1): -7% | inhibition at 0.00508 µM ([2]; MDA-MB-436, MDA-MB-436, Conc. 0.00508 uM, replicate 2, read-out: Inh % 2): -8.2% | inhibition at 0.0152 µM ([2]; MDA-MB-436, MDA-MB-436, Conc. 0.0152 uM, replicate 1, read-out: Inh % 1): -3% | inhibition at 0.0152 µM ([2]; MDA-MB-436, MDA-MB-436, Conc. 0.0152 uM, replicate 2, read-out: Inh % 2): -8% | inhibition at 0.0457 µM ([2]; MDA-MB-436, MDA-MB-436, Conc. 0.0457 uM, replicate 1, read-out: Inh % 1): -14.2% | inhibition at 0.0457 µM ([2]; MDA-MB-436, MDA-MB-436, Conc. 0.0457 uM, replicate 2, read-out: Inh % 2): -14.8% | inhibition at 0.41 µM ([2]; MDA-MB-436, MDA-MB-436, Conc. 0.41 uM, replicate 1, read-out: Inh % 1): -13.7% | inhibition at 0.41 µM ([2]; MDA-MB-436, MDA-MB-436, Conc. 0.41 uM, replicate 2, read-out: Inh % 2): -16% | inhibition at 1.23 µM ([2]; MDA-MB-436, MDA-MB-436, Conc. 1.23 uM, replicate 1, read-out: Inh % 1): -13.7% | inhibition at 1.23 µM ([2]; MDA-MB-436, MDA-MB-436, Conc. 1.23 uM, replicate 2, read-out: Inh % 2): -10.6% | inhibition at 3.7 µM ([2]; MDA-MB-436, MDA-MB-436, Conc. 3.70 uM, replicate 1, read-out: Inh % 1): -16.2% | inhibition at 3.7 µM ([2]; MDA-MB-436, MDA-MB-436, Conc. 3.70 uM, replicate 2, read-out: Inh % 2): -4.5% | inhibition at 11.11 µM ([2]; MDA-MB-436, MDA-MB-436, Conc. 11.11 uM, replicate 1, read-out: Inh % 1): -9.3% | inhibition at 11.11 µM ([2]; MDA-MB-436, MDA-MB-436, Conc. 11.11 uM, replicate 2, read-out: Inh % 2): -8.6% | inhibition at 33.33 µM ([2]; MDA-MB-436, MDA-MB-436, Conc. 33.33 uM, replicate 1, read-out: Inh % 1): 3.2% | inhibition at 33.33 µM ([2]; MDA-MB-436, MDA-MB-436, Conc. 33.33 uM, replicate 2, read-out: Inh % 2): -1.4% | inhibition at 100 µM ([2]; MDA-MB-436, MDA-MB-436, Conc. 100.00 uM, replicate 1, read-out: Inh % 1): 39.9% | inhibition at 100 µM ([2]; MDA-MB-436, MDA-MB-436, Conc. 100.00 uM, replicate 2, read-out: Inh % 2): 37.2% | IC50 ([2]; MDA-MB-436, 72 h, CellTiter-Glo, read-out: MDA-MB-436 IC50): > 100 µM
